Here are results for four compounds from ChEMBL document CHEMBL3297662, “Synthesis and identification of cytotoxic diphyllin glycosides as vacuolar H(+)-ATPase inhibitors” (Eur J Med Chem, 2014).

The test system of test [1] is HepG2. Briefly: Cytotoxicity against human HepG2 cells assessed as growth inhibition after 72 hrs by MTT assay. The class given is functional, cell-based. The note with it: HepG2, 72 h.
Another test has as its system MCF7. Briefly: Cytotoxicity against human MCF7 cells assessed as growth inhibition after 72 hrs by MTT assay. The class given is functional, cell-based. The note with it: MCF7, 72 h. For orientation: Tetrazolium dyes change colour on reduction, which living cells bring about.
The next test relates to HCT-116. The test can be described thus: Cytotoxicity against human HCT116 cells assessed as growth inhibition after 72 hrs by MTT assay. The format is functional, cell-based. The note with it: HCT-116, 72 h.
For another test, the system named is U-251. The test can be described thus: Cytotoxicity against human U251 cells assessed as growth inhibition after 72 hrs by MTT assay. The class given is functional, cell-based. The note with it: U-251, 72 h.
The next test has as its system HeLa. Briefly: Cytotoxicity against human HeLa cells assessed as growth inhibition after 72 hrs by MTT assay. The class given is functional, cell-based.
The subject of test [2] is HepG2. The test can be described thus: Inhibition of vacuolar H+-ATPase in human HepG2 cells assessed as neutralization of lysosomal pH at 10 to 100 nM after 48 hrs by LysoTracker Red dye-based confocal microscopic analysis. The format is cell-based.
The subject of test [3] is HepG2. The test can be described thus: Inhibition of vacuolar H+-ATPase in human HepG2 cells assessed as release of phosphate after 72 hrs by malachite green dye-based spectrophotometric analysis. The format is cell-based.

The source made the active and inactive calls. The rule behind the calls is not given here.

By IC50 is commonly meant the midpoint of a concentration-inhibition curve.

Consider `COc1cc2c(O[C@@H]3OC[C@@H](OC)[C@H](OC)[C@H]3O[C@@H]3O[C@H](CO)[C@@H](O)[C@H](O)[C@H]3O)c3c(c(-c4ccc5c(c4)OCO5)c2cc1OC)C(=O)OC3`, for which the IC50 in the test with HepG2 [1], in the test on MCF7, in the test on HCT-116, in the test with U-251 and in the test with HeLa was more than 200 nM each time.

With `COc1cc2c(O[C@@H]3OC[C@@H](OC)[C@H](OC)[C@H]3O[C@@H]3O[C@H](COC(C)=O)[C@@H](OC(C)=O)[C@H](OC(C)=O)[C@H]3OC(C)=O)c3c(c(-c4ccc5c(c4)OCO5)c2cc1OC)C(=O)OC3`, the IC50 was found to be 39 nM in the test on HepG2 [1]; 92 nM in the test on MCF7; 82 nM in the test with HCT-116; 101 nM in the test with U-251; 74 nM with HeLa. The inhibition result in the test on HepG2 [2] is “Active”. Further, the inhibition entry in the test on HepG2 [3] was “Dose-dependent effect”.

As for `COc1cc2c(O[C@@H]3OC[C@@H](OC)[C@H](OC)[C@H]3O)c3c(c(-c4ccc5c(c4)OCO5)c2cc1OC)C(=O)OC3` [CLEISTANTHIN], the concentration for half-maximal inhibition (IC50) was found to be 36 nM in the test with HepG2 [1]; 190 nM with MCF7; 31 nM with HCT-116; 97 nM with U-251; 67 nM in the test with HeLa. For the same compound, in the test with HepG2 [2], the inhibition entry is “Active”. In the test with HepG2 [3], the inhibition entry was “Dose-dependent effect”.

With `CC(=O)O[C@H]1C(=O)[C@@]2(C)[C@H]([C@H](OC(=O)c3ccccc3)[C@]3(O)C[C@H](OC(=O)[C@H](O)[C@@H](NC(=O)c4ccccc4)c4ccccc4)C(C)=C1C3(C)C)[C@]1(OC(C)=O)CO[C@@H]1C[C@@H]2O` [PACLITAXEL], the IC50 with HepG2 [1] was 84 nM; in the test on MCF7, 45 nM; in the test with HCT-116, 69 nM; in the test with U-251 it was 128 nM; with HeLa it was 96 nM.
